According to patent EP1203770A1 (priority 1992, dated 1994):

Target: T1, HIV-1 protease (Human immunodeficiency virus type 1 group M subtype B, UniProt P04585)
T1 construct: The protease (or proteinase), consisting of only 99 amino acids, is among the smallest enzymes known
Test: In vitro HIV protease inhibitory assay (HIV Protease FITC Assay)
Format: biochemical
Conditions: for inhibition at 0.41 µM: HIV-1 Dose 0.410 uM; for inhibition at 0.41 µM / inhibition at 1.23 µM / inhibition at 3.7 µM / inhibition at 11 µM / inhibition at 33 µM / inhibition at 100 µM / inhibition at 0.123 µM / inhibition at 0.37 µM / inhibition at 1.1 µM / inhibition at 3.3 µM / inhibition at 10 µM / inhibition at 30 µM: read-out: HIV-1 Protease % Inhib; for inhibition at 1.23 µM: HIV-1 Dose 1.230 uM; for inhibition at 3.7 µM: HIV-1 Dose 3.700 uM; for inhibition at 11 µM: HIV-1 Dose 11.000 uM; for inhibition at 33 µM: HIV-1 Dose 33.000 uM; for inhibition at 100 µM: HIV-1 Dose 100.000 uM; for Ki: read-out: HIV-1 FITC Ki
Outline: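 Percent inhibition was read as fluorescence after avidin-bead capture and filtration separated FITC cleavage product from biotinylated substrate. Enzyme and substrate reacted 1 h, RT, dark, at pH 5.5 (0.1 M sodium acetate, 1.0 M NaCl, 0.05% NP-40).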

| SMILES | inhibition at 0.41 µM | inhibition at 1.23 µM | inhibition at 3.7 µM | inhibition at 11 µM | inhibition at 33 µM | inhibition at 100 µM | Ki | inhibition at 0.123 µM (HIV-1 Dose 0.123 uM) | inhibition at 0.37 µM (HIV-1 Dose 0.370 uM) | inhibition at 1.1 µM (HIV-1 Dose 1.100 uM) | inhibition at 3.3 µM (HIV-1 Dose 3.300 uM) | inhibition at 10 µM (HIV-1 Dose 10.000 uM) | inhibition at 30 µM (HIV-1 Dose 30.000 uM) | HIV-1 Protease % Inhib (HIV-1 Dose 0.123 uM) | HIV-1 Protease % Inhib (HIV-1 Dose 0.370 uM) | HIV-1 Protease % Inhib (HIV-1 Dose 1.100 uM) | HIV-1 Protease % Inhib (HIV-1 Dose 3.300 uM) | HIV-1 Protease % Inhib (HIV-1 Dose 10.000 uM) | HIV-1 Protease % Inhib (HIV-1 Dose 30.000 uM) |
| --- | --- | --- | --- | --- | --- | --- | --- | --- | --- | --- | --- | --- | --- | --- | --- | --- | --- | --- | --- |
| CCC(CC1OCCO1)c1cc(O)c(C(c2ccccc2)C2CC2)c(=O)o1 (stereo not drawn) [Example 60, 3-(Cyclopropyl-phenyl-methyl)-6-(1-(1,3)dioxolan-2-ylmethyl-propyl)-4-hydroxy-pyran-2-one] | 63.2% | 86.7% | 106% | 113% | 111% | 123% | 46 nM | – | – | – | – | – | – | – | – | – | – | – | – |
| CCC(CC1CCCOC1)c1cc(O)c(C(c2ccccc2)C2CC2)c(=O)o1 (stereo not drawn) [Example 61, 3-(Cyclopropyl-phenyl-methyl)-4-hydroxy-6-(1-(tetrahydro-pyran-3-ylmethyl)-propyl)-pyran-2-one] | 100% | 101% | 108% | 111% | 111% | 103% | 13 nM | – | – | – | – | – | – | – | – | – | – | – | – |
| CCC(CC1CCCCO1)c1cc(O)c(C(c2ccccc2)C2CC2)c(=O)o1 (stereo not drawn) [Example 62, 3-(Cyclopropyl-phenyl-methyl)-4-hydroxy-6-(1-(tetrahydro-pyran-2-ylmethyl)-propyl)-pyran-2-one] | 85.7% | 95.8% | 108% | 116% | 113% | 123% | 74 nM | – | – | – | – | – | – | – | – | – | – | – | – |
| CCC(Cc1ccccn1)c1cc(O)c(C(c2ccccc2)C2CC2)c(=O)o1 (stereo not drawn) [Example 63, 3-(Cyclopropyl-phenyl-methyl)-4-hydroxy-6-(1-pyridin-2-ylmethyl-propyl)-pyran-2-one] | 68.5% | 95.8% | 101% | 110% | 112% | 117% | 79 nM | – | – | – | – | – | – | – | – | – | – | – | – |
| CCC(CCCCl)c1cc(O)c(C(c2ccccc2)C2CC2)c(=O)o1 (stereo not drawn) [Example 64, 6-(4-Chloro-1-ethyl-butyl)-3-(cyclopropyl-phenyl-methyl)-4-hydroxy-pyran-2-one] | – | – | – | – | – | – | 44 nM | 13.7% | 53.9% | 87.7% | 103% | 109% | 119% | – | – | – | – | – | – |
| CCC(CCC1OCCCO1)c1cc(O)c(C(c2ccccc2)C2CC2)c(=O)o1 (stereo not drawn) [Example 65, 3-(Cyclopropyl-phenyl-methyl)-6-(3-(1,3)dioxan-2-yl-1-ethyl-propyl)-4-hydroxy-pyran-2-one] | – | – | – | – | – | – | 141 nM | < 10% | 28% | 71.2% | 93.2% | 107% | 122% | – | – | – | – | – | – |
| CCC(CCCl)c1cc(O)c(C(c2ccccc2)C2CC2)c(=O)o1 (stereo not drawn) [Example 66, 6-(3-Chloro-1-ethyl-propyl)-3-(cyclopropyl-phenyl-methyl)-4-hydroxy-pyran-2-one] | – | – | – | – | – | – | 53 nM | < 10% | 36% | 75.3% | 99.4% | 102% | 108% | – | – | – | – | – | – |
| CCC(CCOC1CCCCO1)c1cc(O)c(C(c2ccccc2)C2CC2)c(=O)o1 (stereo not drawn) [Example 67] | – | – | – | – | – | – | 84 nM | – | – | – | – | – | – | <10% | 32.64% | 72.63% | 92.3% | 106.66% | 118.42% |
| CCC(Cc1ccncc1)c1cc(O)c(C(c2ccccc2)C2CC2)c(=O)o1 (stereo not drawn) [Example 68, 3-(Cyclopropyl-phenyl-methyl)-4-hydroxy-6-(1-pyridin-4-ylmethyl-propyl)-pyran-2-one] | – | – | – | – | – | – | 132 nM | < 10% | 15.1% | 47.7% | 80.3% | 98.7% | 112% | – | – | – | – | – | – |
| CCC(CC(=O)N1CCOCC1)c1cc(O)c(C(c2ccccc2)C2CC2)c(=O)o1 (stereo not drawn) [Example 69, 3-(Cyclopropyl-phenyl-methyl)-6-(1-ethyl-3-morpholin-4-yl-3-oxo-propyl)-4-hydroxy-pyran-2-one] | – | – | – | – | – | – | – | < 10% | < 10% | 13.9% | 42.1% | 75.2% | 98.5% | – | – | – | – | – | – |
| CCC(Cc1cccnc1)c1cc(O)c(C(c2ccccc2)C2CC2)c(=O)o1 (stereo not drawn) [Example 70, 3-(Cyclopropyl-phenyl-methyl)-4-hydroxy-6-(1-pyridin-3-ylmethyl-propyl)-pyran-2-one] | – | – | – | – | – | – | 64 nM | < 10% | 38.3% | 67.3% | 88.9% | 92.8% | 98.6% | – | – | – | – | – | – |
| CCC(CCc1ccsc1)c1cc(O)c(C(c2ccccc2)C2CC2)c(=O)o1 (stereo not drawn) [Example 71, 3-(Cyclopropyl-phenyl-methyl)-6-(1-ethyl-3-thiophen-3-yl-propyl)-4-hydroxy-pyran-2-one] | – | – | – | – | – | – | 54 nM | 11.6% | 46.3% | 75% | 84% | 95.3% | 96.4% | – | – | – | – | – | – |
| CCCC(CC1CCCOC1)c1cc(O)c(C(c2ccccc2)C2CC2)c(=O)o1 (stereo not drawn) [Example 72, 3-(Cyclopropyl-phenyl-methyl)-4-hydroxy-6-[1-(tetrahydro-pyran-3-ylmethyl)-butyl]-pyran-2-one] | – | – | – | – | – | – | 31 nM | 35% | 68.4% | 90.7% | 98.7% | 93.9% | 97.7% | – | – | – | – | – | – |
| CCC(CCCN1CCOCC1)c1cc(O)c(C(c2ccccc2)C2CC2)c(=O)o1 (stereo not drawn) [Example 73, 3-(Cyclopropyl-phenyl-methyl)-6-(1-ethyl-4-morpholin-4-yl-butyl)-4-hydroxy-pyran-2-one] | – | – | – | – | – | – | – | < 10% | < 10% | < 10% | < 10% | 28.9% | 61.4% | – | – | – | – | – | – |
| CCC(CC1COc2ccccc2O1)c1cc(O)c(C(c2ccccc2)C2CC2)c(=O)o1 (stereo not drawn) [Example 74, 3-(Cyclopropyl-phenyl-methyl)-6-[1-(2,3-dihydro-benzo[1,4]dioxin-2-ylmethyl)-propyl]-4-hydroxy-pyran-2-one] | – | – | – | – | – | – | 186 nM | < 10% | 17.5% | 53.4% | 81.4% | 96.7% | 106% | – | – | – | – | – | – |
| CC(C)Cc1cc(O)c(C(c2ccccc2)C2CC2)c(=O)o1 (stereo not drawn) [Example 75, 3-(Cyclopropyl-phenyl-methyl)-4-hydroxy-6-isobutyl-pyran-2-one] | – | – | – | – | – | – | 127 nM | 11.5% | 33.8% | 66% | 86.6% | 98.5% | 104% | – | – | – | – | – | – |
| CCC(CC1=CCCOC1)c1cc(O)c(C(c2ccccc2)C2CC2)c(=O)o1 (stereo not drawn) [Example 76, 3-(Cyclopropyl-phenyl-methyl)-6-[1-(5,6-dihydro-2H-pyran-3-ylmethyl)-propyl]-4-hydroxy-pyran-2-one] | – | – | – | – | – | – | – | 25% | 54% | 82.4% | 98.9% | 102% | 105% | – | – | – | – | – | – |
| CCC(c1ccccc1)c1c(O)c(Br)c(C(CC2CC2)CC2CC2)oc1=O (stereo not drawn) [Example 77] | 69.4% | 86.9% | 101% | 109% | 108% | 110% | 75 nM | – | – | – | – | – | – | – | – | – | – | – | – |
